# Source: patent publication US20260022143A1, “Cyclic Peptide Inhibitors of IL-23” (JANSSEN PHARMACEUTICA NV, priority 2022, published 2026)
# Starred links: 1 amine or outer side, 2 acyl side, 3 side chain; linkers in the order of their positions; H or OH if unused. Positions of bridges follow the written chain, without caps; N, C: chain ends. Non-standard residues stand in square brackets, D forms with d. Residues, ends and D or L forms follow the SMILES beside them. Groups on a side chain read outwards from the residue. *: point of attachment. X56 = CCCCCCCCCCCC(=O)NCCOCCOCC(=O)NCCOCCOCC(=O)NCC[N+](C)(C)CC(=O)*; X33 = C[N+](C)(C)CCCCc1cn(-c2ccc(C[C@H](N[*:1])C(=O)[*:2])cc2)nn1; X51 = C[N+](C)(C)CCCc1cn(-c2ccc(C[C@H](N[*:1])C(=O)[*:2])cc2)nn1; Me3N+(CH2)2O(CH2)2O(CH2)2CO = C[N+](C)(C)CCOCCOCCC(=O)*; CH2CH2OCH2CH2OCH2CH2NMe3+ = C[N+](C)(C)CCOCCOCC*; Trp(7-Me) = Cc1cccc2c(C[C@H](N)C(=O)O)c[nH]c12; γGlu = O=C(O)[C@H](CCC(=O)[*:2])N[*:1]; 2Nal = N[C@@H](Cc1ccc2ccccc2c1)C(=O)O; 3Pal = N[C@@H](Cc1cccnc1)C(=O)O; Myristoyl = CCCCCCCCCCCCCC(=O)*; Lys(Me) = CNCCCC[C@H](N)C(=O)O; Agb = N=C(N)NCC[C@H](N)C(=O)O; NMeK = CN[C@@H](CCCCN)C(=O)O; Pen = CC(C)(S)[C@H](N)C(=O)O; X31 = N=C(N)NCCOCCC(=O)*; Thp = NC1(C(=O)O)CCOCC1; X3 = C[N+](C)(C)CCCCC*; X76 = N=C(N)NCCOCCOCC*; AEEA = NCCOCCOCC(=O)O; Sar = CNCC(=O)O
# Test: Exposed Polar Surface Area (EPSA)
# Format: physicochemical
# Conditions: SFC on Chirex 3014 column; sample 1 mM DMSO stock; read-out: EPSA
# How it was run: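 Compounds, as 1 mM DMSO stock, were injected in duplicate onto an SFC Chirex 3014 column at 35 °C and eluted with a CO2/methanol (20 mM ammonium formate) gradient. EPSA values in Å^2 were derived from retention times using a linear fit to eight calibration standards, reinjected every 20 compounds.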
row,Compound,EPSA
1,"CCCCCCCCCCCCCC(=O)N[C@@H](CCC(=O)NCCOCCOCC(=O)NCCOCCOCC(=O)NCCCC[C@@H]1NC(=O)[C@@H](NC(=O)CCOCCOCC[N+](C)(C)C)C(C)(C)SSC(C)(C)[C@@H](C(=O)N[C@@H](Cc2ccc(OCCCCC[N+](C)(C)C)cc2)C(=O)N[C@@H](Cc2ccc3ccccc3c2)C(=O)NC2(C(=O)N[C@@H](CCCCNC(=O)COCCOCCNC(=O)COCCOCCNC(=O)CC[C@H](NC(=O)CCCCCCCCCCCCC)C(=O)O)C(=O)N[C@@H](CC(N)=O)C(=O)N[C@@H](Cc3cccnc3)C(=O)N(C)CC(=O)N(C)C)CCOCC2)NC(=O)[C@H](CCCCN(C)C(C)=O)NC(=O)[C@H](Cc2c[nH]c3c(C)cccc23)NC(=O)[C@H]([C@@H](C)O)NC1=O)C(=O)O [compound 398, cPEG3aCO-Pen(3)-K(PEG2PEG2gEC14)-T-7MeW-K(NMeAc)-Pen(3)-TMAPF-2Nal-THP-K(PEG2PEG2gEC14)-N-3Pya-Sar-CON(Me)2] ({Me3N+(CH2)2O(CH2)2O(CH2)2CO}-[Pen]K([AEEA-AEEA-γGlu-Myristoyl])T[Trp(7-Me)][Lys(Me)](Ac)[Pen]Y(X3)[2Nal][Thp]K([AEEA-AEEA-γGlu-Myristoyl])N[3Pal][Sar]-NMe2; disulfide 1-6)",168 A^2
2,"CCCCCCCCCCCCCC(=O)N[C@@H](CCC(=O)NCCOCCOCC(=O)NCCOCCOCC(=O)NCCCC[C@@H]1NC(=O)[C@H](Cc2c[nH]c3c(C)cccc23)NC(=O)[C@H]([C@@H](C)O)NC(=O)[C@H](CC(=O)N(C)C)NC(=O)[C@@H](NC(=O)CCOCCOCC[N+](C)(C)C)C(C)(C)SSC(C)(C)[C@@H](C(=O)N[C@@H](Cc2ccc(OCCCCC[N+](C)(C)C)cc2)C(=O)N[C@@H](Cc2ccc3ccccc3c2)C(=O)NC2(C(=O)N[C@@H](CCCCN(C)C(C)=O)C(=O)N[C@@H](CC(N)=O)C(=O)N[C@@H](Cc3cccnc3)C(=O)N(C)CC(=O)N(C)C)CCOCC2)NC1=O)C(=O)O [compound 399, cPEG3aCO-Pen(3)-N(N(Me)2)-T-7MeW-K(PEG2PEG2gEC14)-Pen(3)-TMAPF-2Nal-THP-K(NMeAc)-N-3Pya-Sar-CON(Me)2] ({Me3N+(CH2)2O(CH2)2O(CH2)2CO}-[Pen]D(NMe2)T[Trp(7-Me)]K([AEEA-AEEA-γGlu-Myristoyl])[Pen]Y(X3)[2Nal][Thp][Lys(Me)](Ac)N[3Pal][Sar]-NMe2; disulfide 1-6)",157 A^2
3,"CCCCCCCCCCCCCC(=O)N[C@@H](CCC(=O)NCCOCCOCC(=O)NCCOCCOCC(=O)NCCCC[C@H](NC(=O)C1(NC(=O)[C@H](Cc2ccc3ccccc3c2)NC(=O)[C@H](Cc2ccc(OCCCCC[N+](C)(C)C)cc2)NC(=O)[C@H]2NC(=O)[C@H](CCCCN(C)C(C)=O)NC(=O)[C@H](Cc3c[nH]c4c(C)cccc34)NC(=O)[C@H]([C@@H](C)O)NC(=O)[C@H](CC(=O)N(C)C)NC(=O)[C@@H](NC(=O)CCOCCOCC[N+](C)(C)C)C(C)(C)SSC2(C)C)CCOCC1)C(=O)N[C@@H](CC(N)=O)C(=O)N[C@@H](Cc1cccnc1)C(=O)N(C)CC(=O)N(C)C)C(=O)O [compound 402, cPEG3aCO-Pen(3)-N(N(Me)2)-T-7MeW-K(NMeAc)-Pen(3)-TMAPF-2Nal-THP-K(PEG2PEG2gEC14)-N-3Pya-Sar-CON(Me)2] ({Me3N+(CH2)2O(CH2)2O(CH2)2CO}-[Pen]D(NMe2)T[Trp(7-Me)][Lys(Me)](Ac)[Pen]Y(X3)[2Nal][Thp]K([AEEA-AEEA-γGlu-Myristoyl])N[3Pal][Sar]-NMe2; disulfide 1-6)",156 A^2
4,"CC(=O)N(C)CCCC[C@@H]1NC(=O)[C@H](Cc2c[nH]c3c(C)cccc23)NC(=O)[C@H]([C@@H](C)O)NC(=O)[C@H](CC(=O)N(C)C)NC(=O)[C@@H](NC(=O)CCOCCOCC[N+](C)(C)C)C(C)(C)SSC(C)(C)[C@@H](C(=O)N[C@@H](Cc2ccc(OCCOCCOCCNC(=N)N)cc2)C(=O)N[C@@H](Cc2ccc3ccccc3c2)C(=O)NC2(C(=O)N[C@@H](CCCCN(C)C(C)=O)C(=O)N[C@@H](CC(N)=O)C(=O)N[C@@H](Cc3cccnc3)C(=O)N(C)CC(=O)N(C)C)CCOCC2)NC1=O [compound 405, cPEG3aCO-Pen(3)-N(N(Me)2)-T-7MeW-K(NMeAc)-Pen(3)-GPEG3F-2Nal-THP-K(NMeAc)-N-3Pya-Sar-CON(Me)2] ({Me3N+(CH2)2O(CH2)2O(CH2)2CO}-[Pen]D(NMe2)T[Trp(7-Me)][Lys(Me)](Ac)[Pen]Y(X76)[2Nal][Thp][Lys(Me)](Ac)N[3Pal][Sar]-NMe2; disulfide 1-6)",157 A^2
5,"CCCCCCCCCCCC(=O)NCCOCCOCC(=O)NCCOCCOCC(=O)NCC[N+](C)(C)CC(=O)NCCCC[C@@H](C(N)=O)N(C)C(=O)[C@H](Cc1cccnc1)NC(=O)[C@H](CC(N)=O)NC(=O)[C@H](CCCCN(C)C(C)=O)NC(=O)C1(NC(=O)[C@H](Cc2ccc3ccccc3c2)NC(=O)[C@H](Cc2ccc(OCCCCC[N+](C)(C)C)cc2)NC(=O)[C@H]2NC(=O)[C@H](CCCCNC(C)=O)NC(=O)[C@H](Cc3c[nH]c4c(C)cccc34)NC(=O)[C@H]([C@@H](C)O)NC(=O)[C@H](CC(=O)N(C)C)NC(=O)[C@@H](NC(=O)CCOCCOCC[N+](C)(C)C)C(C)(C)SSC2(C)C)CCOCC1 [compound 407, cPEG3aCO-Pen(3)-N(N(Me)2)-T-7MeW-K(Ac)-Pen(3)-TMAPF-2Nal-THP-K(NMeac)-N-3Pya-NMeK(SP6PEG2PEG2C12)-CONH2] ({Me3N+(CH2)2O(CH2)2O(CH2)2CO}-[Pen]D(NMe2)T[Trp(7-Me)]K(Ac)[Pen]Y(X3)[2Nal][Thp][Lys(Me)](Ac)N[3Pal][NMeK](X56)-NH2; disulfide 1-6)",151 A^2
6,CC(=O)N[C@@H]1C(=O)N[C@@H](CCNC(=N)N)C(=O)N[C@@H]([C@@H](C)O)C(=O)N[C@@H](Cc2c[nH]c3c(C)cccc23)C(=O)N[C@@H](CCCCN(C)C(C)=O)C(=O)N[C@H](C(=O)N[C@@H](Cc2ccc(OCCOCCOCC[N+](C)(C)C)cc2)C(=O)N[C@@H](Cc2ccc3ccccc3c2)C(=O)NC2(C(=O)N[C@@H](CCCCN(C)C(C)=O)C(=O)N[C@@H](CC(N)=O)C(=O)N[C@@H](Cc3cccnc3)C(=O)N(C)CC(=O)N(C)C)CCOCC2)C(C)(C)SSC1(C)C [compound 412] (Ac-[Pen][Agb]T[Trp(7-Me)][Lys(Me)](Ac)[Pen]Y(CH2CH2OCH2CH2OCH2CH2NMe3+)[2Nal][Thp][Lys(Me)](Ac)N[3Pal][Sar]-NMe2; disulfide 1-6),157 A^2
7,"CC(=O)N(C)CCCC[C@@H]1NC(=O)[C@H](Cc2c[nH]c3c(C)cccc23)NC(=O)[C@H]([C@@H](C)O)NC(=O)[C@H](CC(=O)N(C)C)NC(=O)[C@@H](NC(=O)CCOCCNC(=N)N)C(C)(C)SSC(C)(C)[C@@H](C(=O)N[C@@H](Cc2ccc(OCCOCCOCC[N+](C)(C)C)cc2)C(=O)N[C@@H](Cc2ccc3ccccc3c2)C(=O)NC2(C(=O)N[C@@H](CCCCN(C)C(C)=O)C(=O)N[C@@H](CC(N)=O)C(=O)N[C@@H](Cc3cccnc3)C(=O)N(C)CC(=O)N(C)C)CCOCC2)NC1=O [compound 413, cPEG2gCO-Pen(3)-N(N(Me)2)-T-7MeW-K(NMeAc)-Pen(3)-APEG3F-2Nal-THP-K(NMeAc)-N-3Pya-Sar-CON(Me)2] (X31-[Pen]D(NMe2)T[Trp(7-Me)][Lys(Me)](Ac)[Pen]Y(CH2CH2OCH2CH2OCH2CH2NMe3+)[2Nal][Thp][Lys(Me)](Ac)N[3Pal][Sar]-NMe2; disulfide 1-6)",154 A^2
8,"CC(=O)NCCCC[C@@H]1NC(=O)[C@H](Cc2c[nH]c3c(C)cccc23)NC(=O)[C@H]([C@@H](C)O)NC(=O)[C@H](CC(N)=O)NC(=O)[C@@H](NC(=O)CCOCCOCC[N+](C)(C)C)C(C)(C)SSC(C)(C)[C@@H](C(=O)N[C@@H](Cc2ccc(-n3cc(CCC[N+](C)(C)C)nn3)cc2)C(=O)N[C@@H](Cc2ccc3ccccc3c2)C(=O)NC2(C(=O)N[C@@H](CCCCNC(C)=O)C(=O)N[C@@H](CC(N)=O)C(=O)N[C@@H](Cc3cccnc3)C(=O)N(C)CC(N)=O)CCOCC2)NC1=O [compound 420, cPEG3aCO-Pen(3)-N-T-7MeW-K(Ac)-Pen(3)-F(4TzlTMA3)-2Nal-THP-K(Ac)-N-3Pya-Sar-CONH2] ({Me3N+(CH2)2O(CH2)2O(CH2)2CO}-[Pen]NT[Trp(7-Me)]K(Ac)[Pen][X51][2Nal][Thp]K(Ac)N[3Pal][Sar]-NH2; disulfide 1-6)",170 A^2
9,CC(=O)NCCCC[C@@H]1NC(=O)[C@H](Cc2c[nH]c3c(C)cccc23)NC(=O)[C@H]([C@@H](C)O)NC(=O)[C@H](CC(N)=O)NC(=O)[C@@H](NC(C)=O)C(C)(C)SSC(C)(C)[C@@H](C(=O)N[C@@H](Cc2ccc(-n3cc(CCC[N+](C)(C)C)nn3)cc2)C(=O)N[C@@H](Cc2ccc3ccccc3c2)C(=O)NC2(C(=O)N[C@@H](CCCCNC(C)=O)C(=O)N[C@@H](CC(N)=O)C(=O)N[C@@H](Cc3cccnc3)C(=O)N(C)CC(N)=O)CCOCC2)NC1=O [compound 423] (Ac-[Pen]NT[Trp(7-Me)]K(Ac)[Pen][X51][2Nal][Thp]K(Ac)N[3Pal][Sar]-NH2; disulfide 1-6),161 A^2
10,CC(=O)NCCCC[C@@H]1NC(=O)[C@H](Cc2c[nH]c3c(C)cccc23)NC(=O)[C@H]([C@@H](C)O)NC(=O)[C@H](CC(N)=O)NC(=O)[C@@H](NC(C)=O)C(C)(C)SSC(C)(C)[C@@H](C(=O)N[C@@H](Cc2ccc(-n3cc(CCCC[N+](C)(C)C)nn3)cc2)C(=O)N[C@@H](Cc2ccc3ccccc3c2)C(=O)NC2(C(=O)N[C@@H](CCCCNC(C)=O)C(=O)N[C@@H](CC(N)=O)C(=O)N[C@@H](Cc3cccnc3)C(=O)N(C)CC(N)=O)CCOCC2)NC1=O [compound 425] (Ac-[Pen]NT[Trp(7-Me)]K(Ac)[Pen][X33][2Nal][Thp]K(Ac)N[3Pal][Sar]-NH2; disulfide 1-6 (inferred)),161 A^2
11,"CC(=O)NCCCC[C@@H]1NC(=O)[C@H](Cc2c[nH]c3c(C)cccc23)NC(=O)[C@H]([C@@H](C)O)NC(=O)[C@H](CC(N)=O)NC(=O)[C@@H](NC(=O)CCOCCOCC[N+](C)(C)C)C(C)(C)SSC(C)(C)[C@@H](C(=O)N[C@@H](Cc2ccc(OCCCCC[N+](C)(C)C)cc2)C(=O)N[C@@H](Cc2ccc3ccccc3c2)C(=O)NC2(C(=O)N[C@@H](CCC(=O)O)C(=O)N[C@@H](CC(N)=O)C(=O)N[C@@H](Cc3cccnc3)C(=O)N(C)CC(N)=O)CCOCC2)NC1=O [compound 427, cPEG3aCO-Pen(3)-N-T-7MeW-K(Ac)-Pen(3)-TMAPF-2Nal-THP-E-N-3Pya-Sar-CONH2] ({Me3N+(CH2)2O(CH2)2O(CH2)2CO}-[Pen]NT[Trp(7-Me)]K(Ac)[Pen]Y(X3)[2Nal][Thp]EN[3Pal][Sar]-NH2; disulfide 1-6)",168 A^2
